Consider 19 molecules from patent US20250100994A1, “CDK12/13 COVALENT INHIBITORS OR PHARMACEUTICAL COMPOSITION THEREOF, AND USES THEREOF” (The Regents of the University of Michigan, priority 2023, published 2025).

One experiment deals with CDK13 (Homo sapiens (Human), UniProt Q14004). Nature of the experiment: LANCE Ultra kinase assay, CDK13. It counts as biochemical. Particulars: 30 nM enzyme, 60 min pre-incubation, ULight-4E-BP1 150 nM; read-out: CDK13 IC50. How it is done: (§1) The inhibitory activities of the test compound on the kinases were evaluated by LANCE Ultra assay, which was used for detecting ATP-dependent phosphorylation of a ULight-4E-BP1 (Thr37/Thr46) substrate peptide (150 nM). In short, enzymatic reactions were performed in a reaction buffer (25 mM HEPES (pH 7.5), 10 mM MgCl2, 0.01% BSA, 0.01% Tween 20, and 1 mM DTT). The assay was performed in a 384-well plate (6 μL). A final concentration of an ATP substrate was […], and a final concentration of the ULight-4E-BP1 (Thr37/Thr46) substrate peptide was 150 nM. A final concentration of CDK9, CDK12, or CDK13 was 0.3, 30, or 30 nM, respectively. Pre-incubation of the compound and the enzyme was performed at room temperature for 60 min. The reaction was stopped by adding 10 mM EDTA and 0.15 nM Eu-labeled anti-phospho-eIF4E-binding protein 1 (Thr37/46) antibody in LANCE detection buffer after incubation at room temperature for 15, 60, or 90 min. Time-resolved fluorescence (excitation, 320 nm; emission donor, 615 nm; emission acceptor, 665 nm) was monitored using an EnVision spectrophotometer (PerkinElmer). Readings were computed as (acceptor count/donor count)×1000. IC50 values were derived by fitting a sigmoidal dose-response curve to a plot of assay readouts of inhibitor concentrations. All fittings were computed using program Prism 5.03 (GraphPad Software, San Diego, CA).
Chain of CDK13 (Q14004 whole entry, looked up): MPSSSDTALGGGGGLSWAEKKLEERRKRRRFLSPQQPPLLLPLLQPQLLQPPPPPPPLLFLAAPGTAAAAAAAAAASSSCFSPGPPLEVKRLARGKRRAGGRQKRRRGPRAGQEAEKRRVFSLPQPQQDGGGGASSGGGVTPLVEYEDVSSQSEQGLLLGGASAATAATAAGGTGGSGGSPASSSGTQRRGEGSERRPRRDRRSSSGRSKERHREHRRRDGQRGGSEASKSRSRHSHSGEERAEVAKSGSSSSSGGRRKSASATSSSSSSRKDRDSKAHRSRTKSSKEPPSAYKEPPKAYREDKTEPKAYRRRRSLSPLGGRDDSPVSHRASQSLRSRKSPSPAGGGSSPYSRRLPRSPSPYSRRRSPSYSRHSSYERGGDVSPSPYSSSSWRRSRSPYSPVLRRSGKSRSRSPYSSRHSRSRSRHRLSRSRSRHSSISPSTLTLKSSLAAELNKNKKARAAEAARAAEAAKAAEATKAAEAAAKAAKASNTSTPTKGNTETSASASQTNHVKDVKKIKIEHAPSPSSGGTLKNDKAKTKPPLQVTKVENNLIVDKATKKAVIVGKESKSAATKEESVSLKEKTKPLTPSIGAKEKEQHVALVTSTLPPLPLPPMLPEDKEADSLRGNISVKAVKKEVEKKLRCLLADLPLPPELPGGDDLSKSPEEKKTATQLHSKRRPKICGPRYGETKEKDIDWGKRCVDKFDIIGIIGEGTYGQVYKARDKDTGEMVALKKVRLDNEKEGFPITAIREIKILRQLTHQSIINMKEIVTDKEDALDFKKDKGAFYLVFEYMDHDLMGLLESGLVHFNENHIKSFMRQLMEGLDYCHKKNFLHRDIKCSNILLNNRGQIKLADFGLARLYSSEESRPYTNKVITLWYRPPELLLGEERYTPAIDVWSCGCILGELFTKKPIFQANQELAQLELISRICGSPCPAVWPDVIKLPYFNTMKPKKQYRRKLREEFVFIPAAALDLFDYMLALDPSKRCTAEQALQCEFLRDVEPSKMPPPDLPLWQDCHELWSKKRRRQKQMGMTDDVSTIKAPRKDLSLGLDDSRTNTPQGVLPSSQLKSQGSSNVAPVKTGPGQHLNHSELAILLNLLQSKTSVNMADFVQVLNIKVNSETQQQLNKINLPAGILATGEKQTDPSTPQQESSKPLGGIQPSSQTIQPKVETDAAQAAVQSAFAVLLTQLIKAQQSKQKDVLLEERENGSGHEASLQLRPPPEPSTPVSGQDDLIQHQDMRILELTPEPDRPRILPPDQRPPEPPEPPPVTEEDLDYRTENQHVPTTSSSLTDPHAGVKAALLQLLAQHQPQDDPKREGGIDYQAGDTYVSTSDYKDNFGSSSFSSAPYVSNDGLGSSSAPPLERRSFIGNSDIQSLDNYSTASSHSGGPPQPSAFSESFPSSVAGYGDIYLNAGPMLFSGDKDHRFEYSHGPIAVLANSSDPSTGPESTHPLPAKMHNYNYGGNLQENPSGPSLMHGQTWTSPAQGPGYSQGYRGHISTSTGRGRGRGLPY
Chain of CDK13 (O75909 whole entry partner, looked up): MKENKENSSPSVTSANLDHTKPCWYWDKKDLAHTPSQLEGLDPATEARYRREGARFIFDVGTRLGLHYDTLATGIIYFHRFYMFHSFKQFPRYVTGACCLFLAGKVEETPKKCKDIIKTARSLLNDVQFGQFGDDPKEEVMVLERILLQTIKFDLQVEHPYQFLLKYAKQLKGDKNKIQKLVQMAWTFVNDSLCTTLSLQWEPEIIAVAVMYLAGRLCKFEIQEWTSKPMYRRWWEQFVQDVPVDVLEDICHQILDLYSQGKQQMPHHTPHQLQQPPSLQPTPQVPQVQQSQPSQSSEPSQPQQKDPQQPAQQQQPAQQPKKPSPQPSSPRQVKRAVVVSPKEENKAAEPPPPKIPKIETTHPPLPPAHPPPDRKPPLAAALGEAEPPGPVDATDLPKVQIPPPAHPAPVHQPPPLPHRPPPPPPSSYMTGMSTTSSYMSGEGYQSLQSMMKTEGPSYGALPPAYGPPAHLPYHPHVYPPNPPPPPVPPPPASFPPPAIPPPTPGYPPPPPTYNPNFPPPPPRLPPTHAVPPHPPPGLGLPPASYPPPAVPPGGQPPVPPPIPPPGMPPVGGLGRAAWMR
A general note: Time-resolved FRET reads energy transfer from a long-lived donor to a nearby acceptor.

The next experiment deals with CDK12 (Homo sapiens (Human), UniProt Q9NYV4). Nature of the experiment: LANCE Ultra kinase assay, CDK12. The class given is biochemical. The settings on record: 30 nM enzyme, 60 min pre-incubation, ULight-4E-BP1 150 nM; read-out: CDK12 IC50. On the procedure: as §1
Chain of CDK12 (Q9NYV4 whole entry): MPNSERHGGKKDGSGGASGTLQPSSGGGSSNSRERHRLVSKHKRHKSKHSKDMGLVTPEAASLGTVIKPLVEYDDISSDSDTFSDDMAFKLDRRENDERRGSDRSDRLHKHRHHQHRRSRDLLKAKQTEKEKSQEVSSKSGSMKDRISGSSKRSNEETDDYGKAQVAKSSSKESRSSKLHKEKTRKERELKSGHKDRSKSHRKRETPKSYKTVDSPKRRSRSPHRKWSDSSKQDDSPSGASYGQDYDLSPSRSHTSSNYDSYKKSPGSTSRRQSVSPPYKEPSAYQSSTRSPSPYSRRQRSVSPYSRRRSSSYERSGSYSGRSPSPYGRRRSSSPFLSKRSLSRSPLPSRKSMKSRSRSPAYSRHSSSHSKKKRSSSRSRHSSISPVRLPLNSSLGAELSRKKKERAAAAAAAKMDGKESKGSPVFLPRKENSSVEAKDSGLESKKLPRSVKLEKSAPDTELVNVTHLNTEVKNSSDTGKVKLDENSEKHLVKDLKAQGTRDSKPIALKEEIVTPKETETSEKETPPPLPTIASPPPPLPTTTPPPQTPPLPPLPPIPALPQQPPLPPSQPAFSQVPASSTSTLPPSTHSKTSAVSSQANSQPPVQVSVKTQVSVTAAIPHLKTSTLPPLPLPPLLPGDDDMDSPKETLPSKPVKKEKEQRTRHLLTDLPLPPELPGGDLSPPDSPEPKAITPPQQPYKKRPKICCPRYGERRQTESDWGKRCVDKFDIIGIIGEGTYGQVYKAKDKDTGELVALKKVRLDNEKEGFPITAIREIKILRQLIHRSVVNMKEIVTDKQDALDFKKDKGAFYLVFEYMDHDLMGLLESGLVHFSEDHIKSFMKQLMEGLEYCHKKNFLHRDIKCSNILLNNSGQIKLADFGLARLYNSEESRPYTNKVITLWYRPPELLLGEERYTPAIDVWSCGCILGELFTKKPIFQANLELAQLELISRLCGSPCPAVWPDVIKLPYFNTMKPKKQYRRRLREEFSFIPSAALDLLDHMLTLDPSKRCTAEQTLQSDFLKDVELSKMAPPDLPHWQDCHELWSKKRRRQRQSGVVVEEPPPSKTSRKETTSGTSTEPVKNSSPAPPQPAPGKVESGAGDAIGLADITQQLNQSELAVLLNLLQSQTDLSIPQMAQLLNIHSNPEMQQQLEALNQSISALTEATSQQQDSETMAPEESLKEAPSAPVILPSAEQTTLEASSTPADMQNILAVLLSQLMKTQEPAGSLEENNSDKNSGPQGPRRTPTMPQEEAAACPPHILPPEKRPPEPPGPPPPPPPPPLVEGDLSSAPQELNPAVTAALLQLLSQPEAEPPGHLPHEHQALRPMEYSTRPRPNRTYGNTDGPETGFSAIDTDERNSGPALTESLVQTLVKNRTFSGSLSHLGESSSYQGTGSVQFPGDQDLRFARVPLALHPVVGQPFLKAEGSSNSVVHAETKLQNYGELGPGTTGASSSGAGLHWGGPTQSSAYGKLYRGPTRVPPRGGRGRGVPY
Chain of CDK12 (O75909 whole entry partner): as the sequence (O75909 whole entry partner, looked up) above

The term IC50 denotes the concentration that inhibits the measured activity by half. Turning to `C=CC(=O)Nc1cc(N(C(=O)NCC2CC2)[C@H]2CC[C@H](Nc3ccc(C#N)cn3)CC2)ccc1N1CCN(C)[C@@H](C)C1` [YJZ1025, N-(5-(1-((1r,4S)-4-((5-cyanopyridin-2-yl)amino)cyclohexyl)-3-(cyclopropylmethyl)ureido)-2-((S)-3,4-dimethylpiperazin-1-yl)phenyl)acrylamide], the IC50 at CDK13 and at CDK12 was 50 to 500 nM in each case.
Regarding `C=CC(=O)Nc1cc(N(C(=O)NCC2COC2)[C@H]2CC[C@H](Nc3ccc(C#N)cn3)CC2)ccc1N1CCN(C)[C@@H](C)C1` [YJZ1031, N-(5-(1-((1r,4S)-4-((5-cyanopyridin-2-yl)amino)cyclohexyl)-3-(oxetanyl-3-ylmethyl)ureido)-2-((S)-3,4-dimethylpiperazin-1-yl)phenyl)acrylamide], the IC50 at CDK13 and at CDK12 was greater than 500 nM each time.
As to `C=CC(=O)Nc1cc(N(C(=O)NCc2cnn(C)c2)[C@H]2CC[C@H](Nc3ccc(C#N)cn3)CC2)ccc1N1CCN(C)[C@@H](C)C1` [YJZ1033, N-(5-(1-((1r,4S)-4-((5-cyanopyridin-2-yl)amino)cyclohexyl)-3-((1-methyl-1H-pyrazol-4-yl)methyl)ureido)-2-((S)-3,4-dimethylpiperazin-1-yl)phenyl)acrylamide], the IC50 at CDK13 was 50 to 500 nM; at CDK12, greater than 500 nM.
In the same order, the values of `C=CC(=O)Nc1cc(N(C(=O)NCc2ccccc2Cl)[C@H]2CC[C@H](Nc3ccc(C#N)cn3)CC2)ccc1N1CCN(C)[C@@H](C)C1` [YJZ1060, N-(5-(3-(2-chlorobenzyl)-1-((1r,4S)-4-((5-cyanopyridin-2-yl)amino)cyclohexyl)ureido)-2-((S)-3,4-dimethylpiperazin-1-yl)phenyl)acrylamide] are less than 15 nM and less than 15 nM.
`C=CC(=O)Nc1cc(N(C(=O)NCc2cccnc2)[C@H]2CC[C@H](Nc3ccc(C#N)cn3)CC2)ccc1N1CCN(C)[C@@H](C)C1` [YJZ1061, N-(5-(1-((1r,4S)-4-((5-cyanopyridin-2-yl)amino)cyclohexyl)-3-(pyridin-3-ylmethyl)ureido)-2-((S)-3,4-dimethylpiperazin-1-yl)phenyl)acrylamide]: the IC50 at CDK13 and on CDK12 was 50 to 500 nM in each case.
For the molecule `C=CC(=O)Nc1cc(N(C(=O)NCc2cocn2)[C@H]2CC[C@H](Nc3ccc(C#N)cn3)CC2)ccc1N1CCN(C)[C@@H](C)C1` [YJZ1063, N-(5-(1-((1r,4S)-4-((5-cyanopyridin-2-yl)amino)cyclohexyl)-3-(oxazol-4-ylmethyl)ureido)-2-((S)-3,4-dimethylpiperazin-1-yl)phenyl)acrylamide], the IC50 on CDK13 and at CDK12 was 50 to 500 nM in each case.
For `C=CC(=O)Nc1cc(N(C(=O)NCC(F)(F)F)[C@H]2CC[C@H](Nc3ccc(C#N)cn3)CC2)ccc1N1CCN(C)[C@@H](C)C1` [YJZ1065, N-(5-(1-((1r,4S)-4-((5-cyanopyridin-2-yl)amino)cyclohexyl)-3-(2,2,2-trifluoroethyl)ureido)-2-((S)-3,4-dimethylpiperazin-1-yl)phenyl)acrylamide], the IC50 at CDK13 and on CDK12 was 50 to 500 nM in each case.
In the case of `C=CC(=O)Nc1cc(N(C(=O)NCc2ccccc2)[C@H]2CC[C@H](Nc3ccc(C(F)(F)F)cn3)CC2)ccc1N1CCN(C)[C@@H](C)C1` [YJZ1066, N-(5-(3-benzyl-1-((1r,4S)-4-((5-(trifluoromethyl)pyridin-2-yl)amino)cyclohexyl)ureido)-2-((S)-3,4-dimethylpiperazin-1-yl)phenyl)acrylamide], the figures for the IC50 at CDK13 and on CDK12 were less than 15 nM and 15 to 50 nM, respectively.
For `C=CC(=O)Nc1cc(N(C(=O)NCc2ccccc2)[C@H]2CC[C@H](Nc3ccc(Cl)cn3)CC2)ccc1N1CCN(C)[C@@H](C)C1` [YJZ1070, N-(5-(3-benzyl-1-((1r,4S)-4-((5-chloropyridin-2-yl)amino)cyclohexyl)ureido)-2-((S)-3,4-dimethylpiperazin-1-yl)phenyl)acrylamide], in that order: 15 to 50 nM and 15 to 50 nM.
In the same order, the values of `C=C(F)C(=O)Nc1cc(N(C(=O)NCc2ccccc2)[C@H]2CC[C@H](Nc3ccc(C#N)cn3)CC2)ccc1N1CCN(C)[C@@H](C)C1` [YJZ1072, N-(5-(3-benzyl-1-((1r,4S)-4-((5-cyanopyridin-2-yl)amino)cyclohexyl)ureido)-2-((S)-3,4-dimethylpiperazin-1-yl)phenyl)-2-fluoroacrylamide] are 15 to 50 nM and 50 to 500 nM.
In the same order, the values of `C=CC(=O)Nc1cc(N(C(=O)NCc2ccccc2)[C@H]2CC[C@H](Nc3ccc(C#N)cn3)CC2)ccc1N1CCN(C)CC1` [YJZ5114, N-(5-(3-benzyl-1-((1r,4r)-4-((5-cyanopyridin-2-yl)amino)cyclohexyl)ureido)-2-(4-methylpiperazin-1-yl)phenyl)acrylamide] are 50 to 500 nM and 50 to 500 nM.
As for `C=CC(=O)Nc1cc(N(C(=O)NCc2ccccc2)[C@H]2CC[C@H](Nc3ccc(C#N)cn3)CC2)ccc1Br` [YJZ6048, N-(5-(3-benzyl-1-((1r,4r)-4-((5-cyanopyridin-2-yl)amino)cyclohexyl)ureido)-2-bromophenyl)acrylamide], the IC50 is less than 15 nM at CDK13 and 15 to 50 nM at CDK12.
Turning to `C=CC(=O)Nc1cc(N(C(=O)NCc2ccc(F)cc2)[C@H]2CC[C@H](Nc3ccc(C#N)cn3)CC2)ccc1N1CCN(C)[C@@H](C)C1` [YJZ9166, N-(5-(1-((1r,4S)-4-((5-cyanopyridin-2-yl)amino)cyclohexyl)-3-(4-fluorobenzyl)ureido)-2-((S)-3,4-dimethylpiperazin-1-yl)phenyl)acrylamide], the IC50 on CDK13 and at CDK12 was 15 to 50 nM each time.
With `C=CC(=O)Nc1cc(N(C(=O)N[C@@H](C)c2ccccc2)[C@H]2CC[C@H](Nc3ccc(C#N)cn3)CC2)ccc1N1CCN(C)[C@@H](C)C1` [YJZ9170, N-(5-(1-((1r,4S)-4-((5-cyanopyridin-2-yl)amino)cyclohexyl)-3-((S)-1-phenylethyl)ureido)-2-((S)-3,4-dimethylpiperazin-1-yl)phenyl)acrylamide], the IC50 on CDK13 and on CDK12 was 15 to 50 nM in each case.
`C=CC(=O)Nc1cc(N(C(=O)NCc2ccccc2)[C@H]2CC[C@H](Nc3ccc(C#N)cn3)CC2)cnc1N1CCN(C)[C@@H](C)C1` [YJZ9171, N-(5-(3-benzyl-1-((1r,4S)-4-((5-cyanopyridin-2-yl)amino)cyclohexyl)ureido)-2-((S)-3,4-dimethylpiperazin-1-yl)pyridin-3-yl)acrylamide]: the figures for the IC50 at CDK13 and on CDK12 were 15 to 50 nM and less than 15 nM, respectively.
Turning to `C=CC(=O)Nc1cc(N(C(=O)NC2CC2)[C@H]2CC[C@H](Nc3ccc(C#N)cn3)CC2)ccc1N1CCN(C)[C@@H](C)C1` [YJZ9173, N-(5-(1-((1r,4S)-4-((5-cyanopyridin-2-yl)amino)cyclohexyl)-3-cyclopropylureido)-2-((S)-3,4-dimethylpiperazin-1-yl)phenyl)acrylamide], the IC50 on CDK13 and on CDK12 was 50 to 500 nM in each case.
Take `C=CC(=O)Nc1cc(N(C(=O)N[C@H](C)c2ccccc2)[C@H]2CC[C@H](Nc3ccc(C#N)cn3)CC2)ccc1N1CCN(C)[C@@H](C)C1` [YJZ9176, N-(5-(1-((1r,4R)-4-((5-cyanopyridin-2-yl)amino)cyclohexyl)-3-((R)-1-phenylethyl)ureido)-2-((S)-3,4-dimethylpiperazin-1-yl)phenyl)acrylamide]: the IC50 at CDK13 was 50 to 500 nM; at CDK12, greater than 500 nM.
For the molecule `C=CC(=O)Nc1cc(N(C(=O)NCc2cccc(F)c2)[C@H]2CC[C@H](Nc3ccc(C#N)cn3)CC2)ccc1N1CCN(C)[C@@H](C)C1` [YJZ9177, N-(5-(1-((1r,4S)-4-((5-cyanopyridin-2-yl)amino)cyclohexyl)-3-(3-fluorobenzyl)ureido)-2-((S)-3,4-dimethylpiperazin-1-yl)phenyl)acrylamide], the IC50 on CDK13 is less than 15 nM; at CDK12, 15 to 50 nM.
`C=CC(=O)Nc1cc(N(C(=O)NCc2ccccc2F)[C@H]2CC[C@H](Nc3ccc(C#N)cn3)CC2)ccc1N1CCN(C)[C@@H](C)C1` [YJZ9179, N-(5-(1-((1r,4S)-4-((5-cyanopyridin-2-yl)amino)cyclohexyl)-3-(2-fluorobenzyl)ureido)-2-((S)-3,4-dimethylpiperazin-1-yl)phenyl)acrylamide]: the IC50 on CDK13 was less than 15 nM; at CDK12, 15 to 50 nM.
